How the values were obtained:
Experiment in all cases: relative viability (nuclei count vs DMSO), 5 days (fraction); higher = more cells survive
Dasatinib + Olaparib = compound: Cc1nc(Nc2ncc(C(=O)Nc3c(C)cccc3Cl)s2)cc(N2CCN(CCO)CC2)n1 [Dasatinib] + O=C(c1cc(Cc2n[nH]c(=O)c3ccccc23)ccc1F)N1CCN(C(=O)C2CC2)CC1 [Olaparib] (partner 8 µM)
Summary of the method: (§1)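 Dosing by pin tool came one day after lung cancer cell lines were seeded in 1536-well plates, using either one drug or a fixed anchor-drug dose plus five library-drug doses (not always all listed) in √10 steps. After 5 days, nuclei were counted on 4× images. Relative viability is treated-well nuclei count divided by vehicle-well nuclei count, and values are medians of duplicate plates.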

ALW-II-49-7 + Decitabine = compound: Cc1ccc(C(=O)Nc2cccc(C(F)(F)F)c2)cc1Nc1cncc(C(N)=O)c1 [ALW-II-49-7] + Nc1ncn([C@H]2C[C@H](O)[C@@H](CO)O2)c(=O)n1 [Decitabine] (partner 2 µM)
Summary of the method: as §1

Dasatinib + Alpelisib = compound: Cc1nc(Nc2ncc(C(=O)Nc3c(C)cccc3Cl)s2)cc(N2CCN(CCO)CC2)n1 [Dasatinib] + Cc1nc(NC(=O)N2CCC[C@H]2C(N)=O)sc1-c1ccnc(C(C)(C)C(F)(F)F)c1 [Alpelisib] (partner 2 µM)
Summary of the method: as §1

ALW-II-49-7 + Olaparib = compound: Cc1ccc(C(=O)Nc2cccc(C(F)(F)F)c2)cc1Nc1cncc(C(N)=O)c1 [ALW-II-49-7] + O=C(c1cc(Cc2n[nH]c(=O)c3ccccc23)ccc1F)N1CCN(C(=O)C2CC2)CC1 [Olaparib] (partner 8 µM)
Summary of the method: as §1

Cell Line EMC-BAC-2 has a relative viability (Dasatinib + Olaparib; first compound 0.005 µM) of 0.462, a relative viability (Dasatinib + Olaparib; first compound 0.01581 µM) of 0.404 and a relative viability (Dasatinib + Olaparib; first compound 0.05 µM) of 0.447. The relative viability (Dasatinib + Olaparib; first compound 0.1581 µM) was 0.355, the relative viability (Dasatinib + Olaparib; first compound 0.5 µM) was 0.301 and the relative viability (ALW-II-49-7 + Decitabine; first compound 0.08 µM) was 1.01. The relative viability (ALW-II-49-7 + Decitabine; first compound 0.253 µM) was 1.02, the relative viability (ALW-II-49-7 + Decitabine; first compound 0.8 µM) was 0.982 and the relative viability (ALW-II-49-7 + Decitabine; first compound 2.53 µM) was 0.947. It also gave a relative viability (ALW-II-49-7 + Decitabine; first compound 8 µM) of 0.907, a relative viability (Dasatinib + Alpelisib; first compound 0.005 µM) of 0.632 and a relative viability (Dasatinib + Alpelisib; first compound 0.01581 µM) of 0.478. It also gave a relative viability (Dasatinib + Alpelisib; first compound 0.05 µM) of 0.466, a relative viability (Dasatinib + Alpelisib; first compound 0.1581 µM) of 0.285 and a relative viability (Dasatinib + Alpelisib; first compound 0.5 µM) of 0.194. The relative viability (ALW-II-49-7 + Olaparib; first compound 0.08 µM) was 0.482, the relative viability (ALW-II-49-7 + Olaparib; first compound 0.253 µM) was 0.475 and the relative viability (ALW-II-49-7 + Olaparib; first compound 0.8 µM) was 0.445. For the same cell line, the relative viability (ALW-II-49-7 + Olaparib; first compound 2.53 µM) was 0.396 and the relative viability (ALW-II-49-7 + Olaparib; first compound 8 µM) was 0.367.

HARA showed a relative viability (Dasatinib + Olaparib; first compound 0.005 µM) of 0.822, a relative viability (Dasatinib + Olaparib; first compound 0.01581 µM) of 0.625 and a relative viability (Dasatinib + Olaparib; first compound 0.05 µM) of 0.517. The relative viability (Dasatinib + Olaparib; first compound 0.1581 µM) was 0.186, the relative viability (Dasatinib + Olaparib; first compound 0.5 µM) was 0.188 and the relative viability (ALW-II-49-7 + Decitabine; first compound 0.08 µM) was 0.689. It also gave a relative viability (ALW-II-49-7 + Decitabine; first compound 0.253 µM) of 0.47, a relative viability (ALW-II-49-7 + Decitabine; first compound 0.8 µM) of 0.497 and a relative viability (ALW-II-49-7 + Decitabine; first compound 2.53 µM) of 0.52. It also gave a relative viability (ALW-II-49-7 + Decitabine; first compound 8 µM) of 0.663, a relative viability (Dasatinib + Alpelisib; first compound 0.005 µM) of 0.778 and a relative viability (Dasatinib + Alpelisib; first compound 0.01581 µM) of 0.723. For the same cell line, the relative viability (Dasatinib + Alpelisib; first compound 0.05 µM) was 0.57, the relative viability (Dasatinib + Alpelisib; first compound 0.1581 µM) was 0.27 and the relative viability (Dasatinib + Alpelisib; first compound 0.5 µM) was 0.193. It also gave a relative viability (ALW-II-49-7 + Olaparib; first compound 0.08 µM) of 0.556, a relative viability (ALW-II-49-7 + Olaparib; first compound 0.253 µM) of 0.584 and a relative viability (ALW-II-49-7 + Olaparib; first compound 0.8 µM) of 0.551. The relative viability (ALW-II-49-7 + Olaparib; first compound 2.53 µM) was 0.626 and the relative viability (ALW-II-49-7 + Olaparib; first compound 8 µM) was 1.07.

LU99A showed a relative viability (Dasatinib + Olaparib; first compound 0.005 µM) of 0.283, a relative viability (Dasatinib + Olaparib; first compound 0.01581 µM) of 0.259 and a relative viability (Dasatinib + Olaparib; first compound 0.05 µM) of 0.265. For the same cell line, the relative viability (Dasatinib + Olaparib; first compound 0.1581 µM) was 0.188, the relative viability (Dasatinib + Olaparib; first compound 0.5 µM) was 0.166 and the relative viability (ALW-II-49-7 + Decitabine; first compound 0.253 µM) was 1.03. The relative viability (ALW-II-49-7 + Decitabine; first compound 0.8 µM) was 1, the relative viability (ALW-II-49-7 + Decitabine; first compound 2.53 µM) was 0.839 and the relative viability (ALW-II-49-7 + Decitabine; first compound 8 µM) was 1.09. The relative viability (Dasatinib + Alpelisib; first compound 0.005 µM) was 0.494, the relative viability (Dasatinib + Alpelisib; first compound 0.01581 µM) was 0.5 and the relative viability (Dasatinib + Alpelisib; first compound 0.05 µM) was 0.477. For the same cell line, the relative viability (Dasatinib + Alpelisib; first compound 0.1581 µM) was 0.288, the relative viability (Dasatinib + Alpelisib; first compound 0.5 µM) was 0.192 and the relative viability (ALW-II-49-7 + Olaparib; first compound 0.253 µM) was 0.292. It also gave a relative viability (ALW-II-49-7 + Olaparib; first compound 0.8 µM) of 0.249, a relative viability (ALW-II-49-7 + Olaparib; first compound 2.53 µM) of 0.254 and a relative viability (ALW-II-49-7 + Olaparib; first compound 8 µM) of 0.288.

In the case of NCI-H1944, the relative viability (Dasatinib + Olaparib; first compound 0.005 µM) is reported as 0.415, the relative viability (Dasatinib + Olaparib; first compound 0.01581 µM) is reported as 0.298 and the relative viability (Dasatinib + Olaparib; first compound 0.05 µM) is reported as 0.332. For the same cell line, the relative viability (Dasatinib + Olaparib; first compound 0.1581 µM) was 0.191, the relative viability (Dasatinib + Olaparib; first compound 0.5 µM) was 0.135 and the relative viability (ALW-II-49-7 + Decitabine; first compound 0.08 µM) was 0.421. The relative viability (ALW-II-49-7 + Decitabine; first compound 0.253 µM) was 0.432, the relative viability (ALW-II-49-7 + Decitabine; first compound 0.8 µM) was 0.423 and the relative viability (ALW-II-49-7 + Decitabine; first compound 2.53 µM) was 0.486. The relative viability (ALW-II-49-7 + Decitabine; first compound 8 µM) was 0.389, the relative viability (Dasatinib + Alpelisib; first compound 0.005 µM) was 0.781 and the relative viability (Dasatinib + Alpelisib; first compound 0.01581 µM) was 0.725. It also gave a relative viability (Dasatinib + Alpelisib; first compound 0.05 µM) of 0.575, a relative viability (Dasatinib + Alpelisib; first compound 0.1581 µM) of 0.289 and a relative viability (Dasatinib + Alpelisib; first compound 0.5 µM) of 0.203. For the same cell line, the relative viability (ALW-II-49-7 + Olaparib; first compound 0.08 µM) was 0.451, the relative viability (ALW-II-49-7 + Olaparib; first compound 0.253 µM) was 0.391 and the relative viability (ALW-II-49-7 + Olaparib; first compound 0.8 µM) was 0.381. The relative viability (ALW-II-49-7 + Olaparib; first compound 2.53 µM) was 0.375 and the relative viability (ALW-II-49-7 + Olaparib; first compound 8 µM) was 0.374.

LK-2 was tested, and the relative viability (Dasatinib + Olaparib; first compound 0.005 µM) was 0.674, the relative viability (Dasatinib + Olaparib; first compound 0.01581 µM) was 0.609 and the relative viability (Dasatinib + Olaparib; first compound 0.05 µM) was 0.57. For the same cell line, the relative viability (Dasatinib + Olaparib; first compound 0.1581 µM) was 0.278, the relative viability (Dasatinib + Olaparib; first compound 0.5 µM) was 0.229 and the relative viability (ALW-II-49-7 + Decitabine; first compound 0.08 µM) was 0.393. For the same cell line, the relative viability (ALW-II-49-7 + Decitabine; first compound 0.253 µM) was 0.288, the relative viability (ALW-II-49-7 + Decitabine; first compound 0.8 µM) was 0.301 and the relative viability (ALW-II-49-7 + Decitabine; first compound 8 µM) was 0.252. The relative viability (Dasatinib + Alpelisib; first compound 0.005 µM) was 1.04, the relative viability (Dasatinib + Alpelisib; first compound 0.01581 µM) was 0.764 and the relative viability (Dasatinib + Alpelisib; first compound 0.05 µM) was 0.449. It also gave a relative viability (Dasatinib + Alpelisib; first compound 0.1581 µM) of 0.312, a relative viability (Dasatinib + Alpelisib; first compound 0.5 µM) of 0.275 and a relative viability (ALW-II-49-7 + Olaparib; first compound 0.08 µM) of 0.803. The relative viability (ALW-II-49-7 + Olaparib; first compound 0.253 µM) was 0.682, the relative viability (ALW-II-49-7 + Olaparib; first compound 0.8 µM) was 0.576 and the relative viability (ALW-II-49-7 + Olaparib; first compound 8 µM) was 0.817.

NCI-H441 showed a relative viability (Dasatinib + Olaparib; first compound 0.005 µM) of 0.532, a relative viability (Dasatinib + Olaparib; first compound 0.01581 µM) of 0.529 and a relative viability (Dasatinib + Olaparib; first compound 0.05 µM) of 0.519. For the same cell line, the relative viability (Dasatinib + Olaparib; first compound 0.1581 µM) was 0.387, the relative viability (Dasatinib + Olaparib; first compound 0.5 µM) was 0.309 and the relative viability (ALW-II-49-7 + Decitabine; first compound 0.08 µM) was 0.257. The relative viability (ALW-II-49-7 + Decitabine; first compound 0.253 µM) was 0.229, the relative viability (ALW-II-49-7 + Decitabine; first compound 0.8 µM) was 0.253 and the relative viability (ALW-II-49-7 + Decitabine; first compound 2.53 µM) was 0.208. It also gave a relative viability (ALW-II-49-7 + Decitabine; first compound 8 µM) of 0.253, a relative viability (Dasatinib + Alpelisib; first compound 0.005 µM) of 0.878 and a relative viability (Dasatinib + Alpelisib; first compound 0.01581 µM) of 0.874. The relative viability (Dasatinib + Alpelisib; first compound 0.05 µM) was 0.574, the relative viability (Dasatinib + Alpelisib; first compound 0.1581 µM) was 0.355 and the relative viability (Dasatinib + Alpelisib; first compound 0.5 µM) was 0.218. It also gave a relative viability (ALW-II-49-7 + Olaparib; first compound 0.08 µM) of 0.592, a relative viability (ALW-II-49-7 + Olaparib; first compound 0.253 µM) of 0.52 and a relative viability (ALW-II-49-7 + Olaparib; first compound 0.8 µM) of 0.592. It also gave a relative viability (ALW-II-49-7 + Olaparib; first compound 2.53 µM) of 0.47 and a relative viability (ALW-II-49-7 + Olaparib; first compound 8 µM) of 0.383.

From the supplement of paper PMC10307832
